From ChEMBL document CHEMBL1201862, “PubChem BioAssay data set” (2004)
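Exposure lasted 48 hours, with cells grown in 96-well plates and compounds tested at five concentrations. At the GI50, growth is halved.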 The source made the active and inactive calls. No stated cut-off is given here; in the data, active = GI50 up to about 1.1 µM and inactive = higher.

Columns and labels:
Assay in all cases: DTP human tumour cell line panel, 48 h
A498 = tested on: A498
CCRF-CEM = tested on: CCRF-CEM
COLO 205 = tested on: COLO 205
EKVX = tested on: EKVX
HL-60 = tested on: HL-60
Hs-578T = tested on: Hs-578T
K562 = tested on: K562
KM12 = tested on: KM12
MDA-MB-435 = tested on: MDA-MB-435
MOLT-4 = tested on: MOLT-4
OVCAR-4 = tested on: OVCAR-4
PC-3 = tested on: PC-3
SF-268 = tested on: SF-268
SF-295 = tested on: SF-295
SK-MEL-5 = tested on: SK-MEL-5
SNB-19 = tested on: SNB-19
TK-10 = tested on: TK-10
U-251 = tested on: U-251
UACC-257 = tested on: UACC-257
UACC-62 = tested on: UACC-62

| Compound | GI50 (A498) | GI50 (CCRF-CEM) | GI50 (COLO 205) | GI50 (EKVX) | GI50 (HL-60) | GI50 (Hs-578T) | GI50 (K562) | GI50 (KM12) | GI50 (MDA-MB-435) | GI50 (MOLT-4) | GI50 (OVCAR-4) | GI50 (PC-3) | GI50 (SF-268) | GI50 (SF-295) | GI50 (SK-MEL-5) | GI50 (SNB-19) | GI50 (TK-10) | GI50 (U-251) | GI50 (UACC-257) | GI50 (UACC-62) |
| --- | --- | --- | --- | --- | --- | --- | --- | --- | --- | --- | --- | --- | --- | --- | --- | --- | --- | --- | --- | --- |
| CC1=NN(c2nc(N)nc(/C(C#N)=C/c3ccccc3O)n2)C(C)(C)C1 | 24.7 µM (inactive) | 18 µM (inactive) | 17.4 µM (inactive) | 16 µM (inactive) | 30.3 µM (inactive) | 16.3 µM (inactive) | 51.5 µM (inactive) | 15.8 µM (inactive) | 17.3 µM (inactive) | 30.4 µM (inactive) | 19 µM (inactive) | 16 µM (inactive) | 18.2 µM (inactive) | 15.6 µM (inactive) | 15.5 µM (inactive) | 25.5 µM (inactive) | 26.7 µM (inactive) | 18.4 µM (inactive) | 18.9 µM (inactive) | 17.1 µM (inactive) |
| O=C(NC(=O)c1ccccc1[N+](=O)[O-])Nc1ccc(Oc2ncc(Cl)cn2)c(C(F)(F)F)c1 | < 0.01 µM (active) | 0.0154 µM (active) | 0.0184 µM (active) | 0.126 µM (active) | < 0.01 µM (active) | < 0.01 µM (active) | < 0.0336 µM (active) | < 0.01 µM (active) | < 0.01 µM (active) | 0.047 µM (active) | 1.6 µM (inactive) | < 0.01 µM (active) | 0.0733 µM (active) | < 0.01 µM (active) | < 0.01 µM (active) | 0.0218 µM (active) | 20.1 µM (inactive) | < 0.0121 µM (active) | < 0.01 µM (active) | < 0.01 µM (active) |
| O=C1CCSC(=S)N1c1ccc(Br)c(Cl)c1 | 22.2 µM (inactive) | 60.5 µM (inactive) | 20.2 µM (inactive) | 44.8 µM (inactive) | 26 µM (inactive) | 39 µM (inactive) | 32.9 µM (inactive) | 31.2 µM (inactive) | 26.8 µM (inactive) | 37.4 µM (inactive) | 22.2 µM (inactive) | 34.5 µM (inactive) | 18.5 µM (inactive) | 32.7 µM (inactive) | 18.4 µM (inactive) | 23.7 µM (inactive) | 30.2 µM (inactive) | 27.1 µM (inactive) | 19.9 µM (inactive) | 23.6 µM (inactive) |
| CC(C)(C)OC(=O)NCC(CNC(=O)OC(C)(C)C)C(N)=O | > 100 µM (inactive) | > 100 µM (inactive) | > 100 µM (inactive) | > 100 µM (inactive) | > 100 µM (inactive) | > 100 µM (inactive) | > 100 µM (inactive) | > 100 µM (inactive) | > 100 µM (inactive) | > 100 µM (inactive) | > 100 µM (inactive) | > 100 µM (inactive) | > 100 µM (inactive) | > 100 µM (inactive) | > 100 µM (inactive) | > 100 µM (inactive) | > 100 µM (inactive) | > 100 µM (inactive) | > 100 µM (inactive) | > 100 µM (inactive) |
| Cn1c2c(c3ccccc3c1=O)C(=O)c1ccccc1-2 | 74.1 µM (inactive) | > 100 µM (inactive) | 20 µM (inactive) | 20.6 µM (inactive) | 6.93 µM (inactive) | > 100 µM (inactive) | > 100 µM (inactive) | > 100 µM (inactive) | > 100 µM (inactive) | 3.07 µM (inactive) | 29.9 µM (inactive) | > 100 µM (inactive) | 51.8 µM (inactive) | > 100 µM (inactive) | 29.9 µM (inactive) | 44.2 µM (inactive) | 21.4 µM (inactive) | 35.3 µM (inactive) | > 100 µM (inactive) | 59 µM (inactive) |
